From patent US20220143072A1, “Chitosan nitrate for use as a nitric oxide donor (NO donor)” (NO-ceuticals B.V., priority 2019, published 2022)

Assay: Fasting salivary nitrate and nitrite after oral nitrate (Quantofix test strips)
Parameters: species or system human
Settings: in vivo
Description: Measuring the fasting value of salivary nitrate and nitrite does give a reflection of the plasma value of nitrate and nitrite. The patient took one capsule chitosan nitrate, containing 120 mg NO3− anion, at 11:00 pm. […] An equivalent amount of 120 mg NO3− was taken at 11:00 pm. […] Oligo chitosan is absorbed before reaching the colon and NO3− will then also be absorbed. Quantofix test strips nitrate and nitrite from Macherey-Nagel company, Germany, were used for measurement of NO3− and NO2−. These test strips allow semiquantitative measurement. Reading of the test strips was performed with a Quantofix Relax reader. Other tests were done based on the ingestion of the daily dose in the morning and by measuring the salivary nitrate and salivary nitrite 24 hours later. Two capsules of chitosan nitrate contained an equivalent amount of 240 mg NO3−. Ten measurements were done for both chitosan nitrate and KNO3 salt.

chitosan nitrate
nitrite values in saliva relative to KNO3: three times higher
